Columns and labels:
[1] = test system: mouse leukemia cells L1210; assay: Anti-tumor activity in L1210-transplanted mice (Reference Example 3, Table 4); assay type: in vivo; details: 0.05% Tween 80, L1210-transplanted CDF1 mice
Procedure: The Samples A, B and C synthesized in Reference Examples 1 and 2 were evaluated for their anti-tumor activities by the following method:
In the abdominal cavities of CDFl mice (male, 6-week old, 6-10 mice/group), 105 mouse leukemia cells L1210 subcultured in DBA/2 mice were transplanted. Taking the day of transplantation as Day 0, the test drugs were separately administered intraperitoneally to the mice on Day 1, Day 5 and Day 9, totaling 3 times. Each drug was administered after dissolving or suspending it in 0.05% Tween 80 solution. The evaluation of the effectiveness was performed based on the T/C value which is obtained by the following equation as well as the number of survived mice on Day 30. [formula]

[2] = test system: Cisplatin-resistant mouse leukemia L1210/CDDP cells; assay: Anti-tumor activity in cisplatin-resistant L1210-transplanted mice (Table 2); assay type: in vivo; details: L1210/CDDP-transplanted CDF1 mice
Procedure: In the abdominal cavities of CDFl mice (male, 6-week old, 5-10 mice/group, 105 mouse leukemia L1210 cells passaged in DBA/2 mice were transplanted. Defining the day of transplantation as Day 0, the compounds 1-5 of the present invention were separately administered intraperitoneally to mice on Day 1, Day 5 and Day 9, totaling 3 times. Each compound was administered after dissolving it in distilled water for injection. The evaluation of the anti-tumor activities of the platinum complexes against the L1210-transplanted mice was performed by T/C value which is obtained by the following equation: [formula]
In the abdominal cavities of CDFl mice (male, 6-week old, 5-10 mice/group), 105 Cisplatin-resistant mouse leukemia L1210/CDDP cells passaged in DBA/2 mice were transplanted. Defining the day of transplantation as Day 0, the compounds of the present invention and control drugs were separately administered intraperitoneally to mice on Day 1, Day 5 and Day 9, totaling 3 times.
The compounds of the present invention and carboplatin were administered after dissolving them in distilled water for injection and cisplatin was used after dissolving it in physiological saline for injection. The effectiveness of the compounds was evaluated by using the T/C value as in Example 7.

[3] = 10 mg/kg i.p. on Day 1, 5 and 9
[4] = 25 mg/kg i.p. on Day 1, 5 and 9
[5] = 50 mg/kg i.p. on Day 1, 5 and 9
[6] = 100 mg/kg i.p. on Day 1, 5 and 9
[7] = 200 mg/kg i.p. on Day 1, 5 and 9
[8] = 2.5 mg/kg i.p. on Day 1, 5 and 9
[9] = 7.5 mg/kg i.p. on Day 1, 5 and 9

Structure (SMILES) | Number of Survived Mice (Day 30) ([1]; 1 mg/kg i.p. on Day 1, 5 and 9) | Number of Survived Mice (Day 30) [1, 3] | Survived Days (Mean ± Standard Deviation) [1, 3] | T/C [1, 3] | Number of Survived Mice (Day 30) [1, 4] | Survived Days (Mean ± Standard Deviation) [1, 4] | T/C [1, 4] | Number of Survived Mice (Day 30) [1, 5] | Survived Days (Mean ± Standard Deviation) [1, 5] | T/C [1, 5] | Number of Survived Mice (Day 30) [1, 6] | Survived Days (Mean ± Standard Deviation) [1, 6] | T/C [1, 6] | Number of Survived Mice (Day 30) [1, 7] | Survived Days (Mean ± Standard Deviation) [1, 7] | T/C [1, 7] | Number of Survived Mice (Day 30) [2, 4] | Survived Days (Mean ± Standard Deviation) [2, 4] | T/C [2, 4] | further results
CC(=O)[C-]1C(=O)CC(C)OC1=O.CC(=O)[C-]1C(=O)CC(C)OC1=O.N[C@@H]1CCCC[C@H]1N.O.[Pt+2] (relative stereo) [Sample A, [Pt(II)(trans-l-1,2-diaminocyclohexane)](3-acetyl-6-methyltetrahydropyran-2,4-dione)2.H2 O] | 0/6 | 0/6 | 11.5 ± 1.2 days | 137% | 0/6 | 14.2 ± 3.2 days | 169% | 0/6 | 17.0 ± 3.0 days | 202% | 0/6 | 15.5 ± 5.0 days | 185% | 0/6 | 6.0 days | 71% | – | – | – | –
CC(=O)[C-]1C(=O)CC(C)OC1=O.CC(=O)[C-]1C(=O)CC(C)OC1=O.N[C@@H]1CCCC[C@H]1N.O.[Pt+2] (relative stereo) [Sample B, [Pt(II)(trans-l-1,2-diaminocyclohexane)](3-acetyl-6-methyltetrahydropyran-2,4-dione)2.H2 O] | – | – | – | – | 0/6 | 8.5 ± 0.5 days | 101% | 0/6 | 8.8 ± 0.8 days | 105% | 0/6 | 9.2 ± 1.5 days | 110% | 0/6 | 9.5 ± 2.3 days | 113% | – | – | – | –
CC(=O)[C-]1C(=O)CCOC1=O.CC(=O)[C-]1C(=O)CCOC1=O.N[C@@H]1CCCC[C@H]1N.O.[Pt+2] (relative stereo) [Sample C, [Pt(II)(trans-l-1,2-diaminocyclohexane)](3-acetyltetrahydropyran-2,4-dione)2.H2 O] | 0/6 | 0/6 | 9.8 ± 1.6 days | 117% | 0/6 | 9.5 ± 0.5 days | 113% | 0/6 | 8.7 ± 2.2 days | 104% | 0/6 | 8.3 ± 0.8 days | 99% | 0/6 | 6.2 ± 1.5 days | 74% | – | – | – | Survived Days (Mean ± Standard Deviation) ([1]; 1 mg/kg i.p. on Day 1, 5 and 9): 8.7 ± 0.8 days; T/C ([1]; 1 mg/kg i.p. on Day 1, 5 and 9): 104%
N.N.O=C([O-])C1(C(=O)[O-])CCC1.[Pt+2] [Carboplatin] | – | – | – | – | – | – | – | – | – | – | – | – | – | – | – | – | 0/6 | 9.0 ± 1.1 days | 99% | Number of Survived Mice (Day 30) [2, 5]: 0/6; Survived Days (Mean ± Standard Deviation) [2, 5]: 9.7 ± 0.8 days; T/C [2, 5]: 107%; Number of Survived Mice (Day 30) [2, 6]: 0/6; Survived Days (Mean ± Standard Deviation) [2, 6]: 9.3 ± 0.8 days; T/C [2, 6]: 102%; Number of Survived Mice (Day 30) [2, 7]: 0/6; Survived Days (Mean ± Standard Deviation) [2, 7]: 7.3 ± 1.5 days; T/C [2, 7]: 80%
N.N.[Cl][Pt][Cl] [Cisplatin] | – | – | – | – | – | – | – | – | – | – | – | – | – | – | – | – | 0/6 | 7.2 ± 1.6 days | 79% | Number of Survived Mice (Day 30) [1, 8]: 0/6; Survived Days (Mean ± Standard Deviation) [1, 8]: 13.0 ± 2.3 days; T/C [1, 8]: 155%; Number of Survived Mice (Day 30) ([1]; 5 mg/kg i.p. on Day 1, 5 and 9): 0/5; Survived Days (Mean ± Standard Deviation) ([1]; 5 mg/kg i.p. on Day 1, 5 and 9): 13.8 ± 1.1 days; T/C ([1]; 5 mg/kg i.p. on Day 1, 5 and 9): 164%; Number of Survived Mice (Day 30) [1, 9]: 0/6; Survived Days (Mean ± Standard Deviation) [1, 9]: 18.3 ± 6.2 days; T/C [1, 9]: 218%; Number of Survived Mice (Day 30) [2, 8]: 0/6; Survived Days (Mean ± Standard Deviation) [2, 8]: 9.3 ± 1.0 days; T/C [2, 8]: 102%; Number of Survived Mice (Day 30) ([2]; 5 mg/kg i.p. on Day 1, 5 and 9): 0/6; Survived Days (Mean ± Standard Deviation) ([2]; 5 mg/kg i.p. on Day 1, 5 and 9): 8.3 ± 0.5 days; T/C ([2]; 5 mg/kg i.p. on Day 1, 5 and 9): 91%; Number of Survived Mice (Day 30) [2, 3]: 0/6; Survived Days (Mean ± Standard Deviation) [2, 3]: 8.7 ± 0.8 days; T/C [2, 3]: 96%
